In publication PMC9154793, “Design, synthesis, and biological evaluation of triazole-pyrimidine-methylbenzonitrile derivatives as dual A2A/A2B adenosine receptor antagonists” (Journal of Enzyme Inhibition and Medicinal Chemistry, 2022):

Key:
[1] = biological target: human A2A AR (Homo sapiens, UniProt P29274); experiment: cAMP functional assay in CHO-K1/ADORA2A/Gα15 cells (NECA-stimulated, HTRF); assay type: cell-based; details: relative to ZM241385 at 1 μM, mean ± SEM; for inhibition at 0.01 µM / inhibition at 0.1 µM / inhibition at 1 µM: CHO-K1; for inhibition at 0.01 µM: read-out: hA2A AR (%) inhibition of cAMP, 10 nM; for inhibition at 0.1 µM: read-out: hA2A AR (%) inhibition of cAMP, 100 nM; for inhibition at 1 µM: read-out: hA2A AR (%) inhibition of cAMP, 1000 nM;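 as to all read-outs here: inhibition of NECA-driven intracellular cAMP build-up in the A2A-expressing cells, quantified with cAMP-d2 plus Eu3+-labelled anti-cAMP detection reagent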
Chain of human A2A AR (P29274 whole entry): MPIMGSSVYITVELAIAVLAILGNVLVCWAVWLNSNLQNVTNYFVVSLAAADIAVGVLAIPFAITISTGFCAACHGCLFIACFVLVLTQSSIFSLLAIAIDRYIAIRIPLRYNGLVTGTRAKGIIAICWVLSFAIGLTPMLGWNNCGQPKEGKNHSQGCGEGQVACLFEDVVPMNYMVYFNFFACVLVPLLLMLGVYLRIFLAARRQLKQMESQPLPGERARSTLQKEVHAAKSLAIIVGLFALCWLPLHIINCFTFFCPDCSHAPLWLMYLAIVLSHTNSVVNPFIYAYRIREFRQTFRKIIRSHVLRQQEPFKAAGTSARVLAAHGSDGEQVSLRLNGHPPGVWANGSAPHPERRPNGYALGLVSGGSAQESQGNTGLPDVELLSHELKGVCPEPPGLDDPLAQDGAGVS
Experimental: (§16) In the cAMP assay, CHO-K1/ADORA2A/Gα15 cells expressing human A2A AR and CHO-K1/ADORA2b/Gα15 cells expressing human A2B AR were activated by 5′-(N-ethylcarboxamido)adenosine (NECA) and triggered the accumulation of intracellular cAMP concentration.
(§17) CHO-K1/ADORA2A/Gα15 cells expressing human A2A AR and CHO-K1/ADORA2b/Gα15 cells expressing human A2B AR were both constructed by Genscript Biotech Corporation. […] The test stock solutions were diluted with different gradients for use. The procedure was exemplified by the cAMP functional assay on the A2A receptor: 10,000 cells/well of CHO-K1/ADORA2A/Gα15 were seeded in a 384-well plate in 20 μl of assay buffer. […] Then, 10 μl of detection reagent (cAMP-d2 and anti-cAMP-Eu3+) was added into each well of the plate and incubated at room temperature for 1 h.

[2] = biological target: T1, human A2B AR (Homo sapiens, UniProt P29275); experiment: cAMP functional assay in CHO-K1/ADORA2b/Gα15 cells (NECA-stimulated, HTRF); assay type: cell-based; details: compound at 100 nM, relative to ZM241385 at 1 μM, mean ± SEM; for inhibition at 0.1 µM: CHO-K1, read-out: hA2B AR (%) inhibition of cAMP, 100 nM
T1 sequence (P29275 1-332): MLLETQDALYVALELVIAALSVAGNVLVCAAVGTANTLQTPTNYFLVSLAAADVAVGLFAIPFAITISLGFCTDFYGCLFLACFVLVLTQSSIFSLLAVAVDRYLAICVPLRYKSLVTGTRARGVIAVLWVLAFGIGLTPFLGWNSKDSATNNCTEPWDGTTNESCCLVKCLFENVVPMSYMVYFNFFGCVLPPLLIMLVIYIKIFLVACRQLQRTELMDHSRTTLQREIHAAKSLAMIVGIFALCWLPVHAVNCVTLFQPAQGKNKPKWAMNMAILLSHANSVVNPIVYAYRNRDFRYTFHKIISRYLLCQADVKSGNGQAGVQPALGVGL
Experimental: as §16, §17

[3] = Metabolic stability in human liver microsomes; assay type: in vitro ADME
Experimental: (§1) The metabolic stability is an important focus for further compound optimisation. Compounds 7f, 7i, and AB928 were chosen to evaluate the stability in rat liver microsomes and human liver microsomes. For the microsomal metabolic experiment, 7-ethoxycoumarin (7-EC) was used as a control. As shown in Table 4 (see Supporting information for raw data), the CLint(liver) of 7-EC in rats and humans was 10.0 and 9.0 ml/min/g liver, respectively, indicating the experimental test system was reliable.
(§2) Metabolic stabilities of compounds 7f, 7i, and AB928 in liver microsomes were studied with pooled human (male) liver microsomes solution (20 mg/ml) and male Sprague–Dawley rats pooled liver microsomes solution (20 mg/ml) purchased from Research Institute for Liver Diseases (Shanghai) Co. Ltd. Both liver microsomes solutions (140 μl) were diluted by 3948 μl of water and 280 μl of phosphate buffered saline. The assay procedure: 640 μl of diluted liver microsomes solution was added to a solution of compound working solution (16 μl, 25 μM in DMSO) and the mixed solution was incubated at 37 °C for 5 min. Then 160 μl of NADPH generating system was added and take out 100 μl from the mixed solution was added 200 μl of acetonitrile solution to stop the reaction at the set incubation time (0 min, 10 min, 20 min, 30 min, 40 min, 50 min, and 60 min). All stopped reaction solutions were vortex mixed (3 min) and centrifuged (10,000 rpm, 4 °C for 10 min). Then 50 μl of the supernatant was analysed by UPLC-MS/MS system (details of the analytical method see Supporting information). […]
(§3) 8. Metabolic stability in human and rat liver microsomes
(§4) Metabolic stabilities of compounds 7f, 7i and AB928 in liver microsomes were studied with pooled human (male) liver microsomes solution (20 mg/mL) and male Sprague - Dawley rats pooled liver microsomes solution (20 mg/mL) purchased from Research Institute for Liver Diseases (Shanghai) Co. Ltd. Both liver microsomes solutions (140 μL) were diluted by 3948 μL of water and 280 μL of phosphate buffered saline. The assay procedure: 640 μL of diluted liver microsomes solution was added to a solution of compound working solution (16 μL, 25 μM in DMSO) and the mixed solution was […]
(§5) (1 picture or pasted object on this page, not shown here) […]
(§6) incubated at 37 ℃ for 5 min. Then 160 μL of NADPH generating system was added and take out 100 μL from the mixed solution was added 200 μL of acetonitrile solution to stop the reaction at the set incubation time (0 min, 10 min, 20 min, 30 min, 40 min, 50 min, and 60 min). All stopped reaction solutions were vortex mixed (3 min) and centrifuged (10000 rpm, 4 ℃ for 10 min). Then 50 μL of the supernatant was analyzed […]
(§7) 8.2 Chromatography and mass spectrometry conditions
(§8) UPLC was performed using an […] UPLC system (Waters, Milford, MA, […]
(§9) USA). Separation was achieved on a Waters BEH C18 column(100 mm × 2.1 mm， 1.7 μm) at 40 ℃. The injection volume of the sample solution was 5 μL. The mobile phase consisted of water (0.1% formic acid and ammonium acetate) and acetonitrile solution (20:80, v/v) at a flow rate of 0.4 mL/min within a running time of 6 min. Mass spectrometric analysis was performed on a Waters Xevo TQ-S triple quadrupole instrument using electrospray ionization in positive mode. Quantification was performed using multiple reaction monitoring (MRM) mode to monitor precursor-product ion transitions (Table S1).
(§10) Table S1. Conditions of MRM Detection. […]
(§11) Table S2. Raw data of metabolic stability in human and rat liver microsomes. […]
(§12) (min) Hum Rat Hum Rat Hum Rat Hum Rat
(§13) 9. Analytical method of pharmacokinetics assay
(§14) Animal experiments were performed according to the institutional ethical guidelines on animal care and approved by the Institute Animal Care and Use Committee at Binzhou […]
(§15) Female Bal b/c mice (sourced from Jinan Pengyue Experimental Animal Breeding […]

[4] = Metabolic stability in rat liver microsomes; assay type: in vitro ADME, Sprague–Dawley rats
Experimental: as §1, §2, §3, §4, §5, §6, §7, §8, §9, §10, §11, §12, §13, §14, §15

Compound | inhibition at 0.01 µM ([1]; compound at 10 nM) [%] | inhibition at 0.1 µM ([1]; compound at 100 nM) [%] | inhibition at 1 µM ([1]; compound at 1000 nM) [%] | inhibition at 0.1 µM [2] [%] | melting point [°C] | also measured
3-(2-Amino-6-(1-((6–(2-(hydroxymethyl)pyrrolidine-1-carbonyl)pyridin-2-yl)methyl)-1H-1,2,3-triazol-4-yl)pyrimidin-4-yl)-2-methylbenzonitrile [Compound 7l] |  |  |  |  |  | hA2A AR (%) inhibition of cAMP, 10 nM ([1]; compound at 10 nM): 13.46 ± 3.71%; hA2A AR (%) inhibition of cAMP, 100 nM ([1]; compound at 100 nM): 52.3 ± 8.46%; hA2A AR (%) inhibition of cAMP, 1000 nM ([1]; compound at 1000 nM): 89.66 ± 1.31%; hA2B AR (%) inhibition of cAMP, 100 nM [2]: 84.34 ± 4.72%
CCOc1ccc2ccc(=O)oc2c1 [Compound 7-EC, 7-ethoxycoumarin, reference compound] |  |  |  |  |  | CLint(liver) Hum ([3]; human, microsomes): 9.0 mL/min/g; half-life at 0.49 µM ([3]; male, human, microsomes): 8.12 min; remaining at 20 min, 0.49 µM ([3]; male, human, microsomes): 11.5%; remaining at 0.5 h, 0.49 µM ([3]; male, human, microsomes): 3.54%; remaining at 40 min, 0.49 µM ([3]; male, human, microsomes): 1.6%; remaining at 50 min, 0.49 µM ([3]; male, human, microsomes): 0.97%; remaining at 1 h, 0.49 µM ([3]; male, human, microsomes): 0.72%; remaining at 10 min, 0.49 µM ([3]; male, human liver microsomes, 10 min, read-out: %Remaining Hum, 10 min): 34%; remaining at 10 min, 0.49 µM ([4]; male, Sprague-Dawley, pooled rat liver microsomes, rat liver microsomes, 10 min): 49%; remaining at 20 min, 0.49 µM ([4]; male, Sprague-Dawley, pooled rat liver microsomes, rat liver microsomes, 20 min): 23%; remaining at 0.5 h, 0.49 µM ([4]; male, Sprague-Dawley, pooled rat liver microsomes, rat liver microsomes, 30 min): 10.4%; remaining at 40 min, 0.49 µM ([4]; male, Sprague-Dawley, pooled rat liver microsomes, rat liver microsomes, 40 min): 2.98%; remaining at 50 min, 0.49 µM ([4]; male, Sprague-Dawley, pooled rat liver microsomes, rat liver microsomes, 50 min): 1.02%; remaining at 1 h, 0.49 µM ([4]; male, Sprague-Dawley, pooled rat liver microsomes, rat liver microsomes, 60 min, read-out: Remaining (%, T = 60min) Rat): 0.35%; half-life at 0.49 µM ([4]; male, Sprague-Dawley, rat, pooled rat liver microsomes, read-out: T1/2 Rat): 7.26 min; CLint(liver) Rat ([4]; rat liver microsomes): 10.0 mL/min/g
Cc1c(C#N)cccc1-c1cc(-c2cn(Cc3ccc4ccccc4n3)nn2)nc(N)n1 [Compound 7a, 3-(2-Amino-6–(1-(quinolin-2-ylmethyl)-1H-1,2,3-triazol-4-yl)pyrimidin-4-yl)-2-methylbenzonitrile] | 28.2 ± 8.79 | 16.5 ± 1.9 | 43.5 ± 0.77 | 3.51 ± 3.19 | 203 to 204 | 
Cc1c(C#N)cccc1-c1cc(-c2cn(Cc3ccc4cccc(N)c4n3)nn2)nc(N)n1 [Compound 7c, 3-(2-amino-6-(1-((8-aminoquinolin-2-yl)methyl)-1H-1,2,3-triazol-4-yl)pyrimidin-4-yl)-2-methylbenzonitrile] | 35.9 ± 5.39 | 38.2 ± 10.8 | 48.5 ± 1.45 | 85.43 ± 0.04 | 268 to 269 | 
COC(=O)c1cccc(Cn2cc(-c3cc(-c4cccc(C#N)c4C)nc(N)n3)nn2)n1 [Compound 7d, Methyl 6-((4-(2-amino-6-(3-cyano-2-methylphenyl)pyrimidin-4-yl)-1H-1,2,3-triazol-1-yl)methyl)picolinate] | 40.8 ± 9.01 | 63.4 ± 1.39 | 91.3 ± 4.28 | 80.3 ± 1.84 | 105 to 106 | 
Cc1c(C#N)cccc1-c1cc(-c2cn(Cc3cccc(C(=O)OC(C)C)n3)nn2)nc(N)n1 [Compound 7e, Isopropyl 6-((4-(2-amino-6-(3-cyano-2-methylphenyl)pyrimidin-4-yl)-1H-1,2,3-triazol-1-yl)methyl)picolinate] | 45 ± 1.25 | 50.7 ± 5.51 | 67.8 ± 4.91 | 82.5 ± 7.81 | 128 to 129 | 
Cc1c(C#N)cccc1-c1cc(-c2cn(Cc3cccc(-c4ncc[nH]4)n3)nn2)nc(N)n1 [Compound 7g, 3-(6-(1-((6-(1H-imidazol-2-yl)pyridin-2-yl)methyl)-1H-1,2,3-triazol-4-yl)-2-aminopyrimidin-4-yl)-2-methylbenzonitrile] | 19.6 ± 2.13 | 56 ± 2.03 | 107.3 ± 0.89 | 52.9 ± 3.96 | 139 to 140 | 

The next lines start with results.

inhibition at 0.01 µM ([1]; compound at 10 nM) [%] | inhibition at 0.1 µM ([1]; compound at 100 nM) [%] | inhibition at 1 µM ([1]; compound at 1000 nM) [%] | inhibition at 0.1 µM [2] [%] | melting point [°C] | Compound | also measured
37.9 ± 2.32 | 55.2 ± 4.27 | 92.6 ± 1.91 | 54.8 ± 2.09 | 176 to 177 | Cc1c(C#N)cccc1-c1cc(-c2cn(Cc3cccc(C(=O)O)n3)nn2)nc(N)n1 [Compound 7h, 6-((4-(2-amino-6–(3-cyano-2-methylphenyl)pyrimidin-4-yl)-1H-1,2,3-triazol-1-yl)methyl)picolinic acid] | 
22.4 ± 6.68 | 82.2 ± 1.26 | 101 ± 4.62 | 82.4 ± 4.52 | 208 to 209 | Cc1c(C#N)cccc1-c1cc(-c2cn(Cc3cccc(C(=O)NCCO)n3)nn2)nc(N)n1 [Compound 7j, 6-((4-(2-Amino-6-(3-cyano-2-methylphenyl)pyrimidin-4-yl)-1H-1,2,3-triazol-1-yl)methyl)-N-(2-hydroxyethyl)picolinamide] | 
21.7 ± 5.43 | 70.5 ± 6.37 | 94.9 ± 2.05 | 78.3 ± 2.66 |  | Cc1c(C#N)cccc1-c1cc(-c2cn(Cc3cccc(C(=O)N4CC(O)C4)n3)nn2)nc(N)n1 [Compound 7k, 3-(2-Amino-6-(1-((6–(3-hydroxyazetidine-1-carbonyl)pyridin-2-yl)methyl)-1H-1,2,3-triazol-4-yl)pyrimidin-4-yl)-2-methylbenzonitrile] | 
21.5 ± 4.32 | 28.6 ± 4.03 | 69.6 ± 1.01 | 69.4 ± 4.01 | 163 to 164 | COc1cccc(Cn2cc(-c3cc(-c4cccc(C#N)c4C)nc(N)n3)nn2)c1 [Compound 7m, 3-(2-Amino-6-(1-(3-methoxybenzyl)-1H-1,2,3-triazol-4-yl)pyrimidin-4-yl)-2-methylbenzonitrile] | 
18.8 ± 3.88 | 29.8 ± 0.38 | 54.8 ± 2.41 | 63.5 ± 4.93 | 149 to 150 | COc1ccc(Cn2cc(-c3cc(-c4cccc(C#N)c4C)nc(N)n3)nn2)cc1 [Compound 7n, 3-(2-Amino-6-(1-(4-methoxybenzyl)-1H-1,2,3-triazol-4-yl)pyrimidin-4-yl)-2-methylbenzonitrile] | 
